According to publication PMC11784026, “Phase 1 study of the safety, tolerability, and pharmacokinetics of a synthetic macrocyclic peptide antibiotic (BRII-693) in healthy adult participants” (Antimicrobial Agents and Chemotherapy, 2024):
Where “and” joins values, the source holds several entries; their conditions need not be identical. Equal values may be shown once. Read-outs that look alike come from different tables or passages of the source. Marks after values point to notes of the source that are not given here. Where a SMILES comes first, the peptide text is derived from it. Bridges are numbered along the chain shown (N, C = ends). [ ]: non-standard residue; d: D form. The star is where a group is joined. X1 = O=C(c1ccc(Cl)cc1Cl)*; Dab = NCC[C@H](N)C(=O)O; Abu = CC[C@H](N)C(=O)O; Dap = NC[C@H](N)C(=O)O

Assays:
[1] = Renal function: serum creatinine, RIFLE Risk criteria; type: in vivo, human (healthy adult participants); settings: for Serum creatinine level: cohort 12, 150 mg q6h × 14 days
From the text: Safety assessments included repeated measures of laboratory testing, vital signs, ECGs, physical examinations, and adverse event (AE) monitoring and reporting conducted before, during, and after study drug administration. A >1.5× increase from baseline in creatinine was characterized as meeting the (RIFLE) “Risk” level (or Class R) criteria ([10]). Participants were confined at the clinical research unit for the duration of their study participation. For the SAD cohorts, confinement was from the day before dosing through day 3 (at least 48 hours after dosing). For the MAD cohorts, confinement was from the day before dosing through day 11 for cohorts 8 to 10 and through day 17 for cohorts 11 and 12.

[2] = Plasma pharmacokinetics after single ascending doses (SAD), phase 1; type: in vivo, human (healthy adult participants); settings: for clearance / Vd / half-life / AUC(0-inf) / Cmax / AUC(0-t) / Tmax: human, plasma; for clearance: total clearance; for Vd: volume of distribution during terminal phase, read-out: VZ; for half-life: apparent terminal half-life; for AUC(0-t): read-out: AUC0–6h
Description: Participants were then discharged on day 3.
Plasma and urine PK parameters were summarized for each cohort using descriptive statistics. Analyses using linear models were performed to assess dose proportionality (both single-dose cohorts 1–7 and multiple-dose cohorts 8–10). Dose-linearity of Cmax and AUC across the dose range was assessed by fitting the power model with ln-transformed parameter as response variables and ln-transformed dose (continuous variable) as a fixed effect. For each PK parameter and study phase (SAD or MAD) separately, a pooled estimate (across all dose cohorts) of slope, corresponding 95% confidence interval (CI), and between-subject coefficient of variation (CV) were calculated. Dose proportionality was to be concluded if the 95% CI for the slope spans 1. […] Least square means (LSMs) and difference in LSMs with 90% CI were calculated; these values were then back exponentiated to give the geometric LSM, geometric mean ratio, and 90% CI.

[3] = SAD; for fe0–48h: % of dose in urine as unchanged drug over 48 h; for CLR: renal clearance
Description: During the SAD phase of the study, cohort dosing of 10, 25, 50, 100, 200, 300, and 400 mg of BRII-693 was evaluated in a sequential manner. Each of the seven SAD cohorts enrolled eight eligible participants (six active; two placebo). On day 1, participants received a single IV dose of BRII-693 or placebo as a 1-hour infusion. Participants were then discharged on day 3.
For the SAD cohorts, blood samples for the measurement of BRII-693 in plasma were obtained before dosing and at 0.5 (mid-infusion), 1 (end of infusion), 1.25, 1.5, 2, 4, 6, 8, 12, 24, 36, and 48 hours following the start of dosing infusion. Urine samples were collected for PK assessment before dosing and at the time intervals of 0–4, 4–8, 8–12, 12–24, 24–36, and 36–48 hours after the start of dosing infusion.
All blood samples were collected into EDTA-containing vials, immediately placed on ice, and centrifuged at 3,000× g for approximately 10 minutes at 4°C. Supernatant plasma was transferred to two pre-chilled cryopreservation vials (at least 1.0 mL per vial) and stored at −80°C until shipped to the analytical laboratory. Urine samples collected for each time interval were refrigerated, aliquoted, and stored at −80°C until shipped to the analytical laboratory. Plasma and urine samples were analyzed for BRII-693 concentrations using validated high-performance liquid chromatography with detection by mass spectrometry method (BioAgilytix, San Diego, CA). The assay range was 50.0–50,000 ng/mL in both plasma and urine.
Area under the concentration-time curve (AUC) from time zero to the time of the last quantifiable concentration (AUC0–last), AUC from time zero to infinity (AUC0–inf), AUC within a dosing interval of 6 hours (AUC0–6h), maximum observed concentration (Cmax), time to reach maximum concentration (Tmax), apparent terminal half-life (t1/2), total clearance (CL), volume of distribution during terminal phase (Vz), and accumulation ratio based on AUC (ARAUC) were determined for BRII-693 in plasma. Urine parameters included amount and percentage of dose recovered in urine as unchanged drug over each collection interval and cumulatively and renal clearance (CLR). PK parameters were determined using noncompartmental methods in Phoenix WinNonlin (Certara, Version 8.3).

[4] = single 1-h IV infusion 10 mg, n = 6, arithmetic mean ± SD
[5] = single 1-h IV infusion 25 mg, n = 5, arithmetic mean ± SD
[6] = single 1-h IV infusion 50 mg, n = 6, arithmetic mean ± SD
[7] = single 1-h IV infusion 100 mg, n = 6, arithmetic mean ± SD
[8] = single 1-h IV infusion 200 mg, n = 6, arithmetic mean ± SD
[9] = single 1-h IV infusion 300 mg, n = 6, arithmetic mean ± SD
[10] = single 1-h IV infusion 400 mg, n = 6, arithmetic mean ± SD
[11] = single 1-h IV infusion 10 mg, n = 5, arithmetic mean ± SD

CC[C@@H]1NC(=O)[C@@H](CC(C)C)NC(=O)[C@H](CCN)NC(=O)[C@@H](NC(=O)[C@H](CN)NC(=O)[C@@H](NC(=O)[C@H](CCN)NC(=O)c2ccc(Cl)cc2Cl)[C@@H](C)O)CCNC(=O)[C@H]([C@@H](C)O)NC(=O)[C@H](CCN)NC(=O)[C@H](CCN)NC1=O [BRII-693] (X1-[Dab]T[Dap][Dab][Dab][dL][Abu][Dab][Dab]T; lactam 4-C; N-terminus assumed)
Participants with creatinine elevation (>1.5× increase from baseline, RIFLE risk class) ([1]; 150 mg q6h × 14 days): 1 of 20
Serum creatinine level after completion of therapy ([1]; 200 mg q6h × 7 days, first participant, day 11): 1.17 mg/dL
Peak serum creatinine level ([1]; 200 mg q6h × 7 days, one participant, day 10): 1.54 mg/dL
Serum creatinine level after completion of therapy ([1]; 200 mg q6h × 7 days, other participant, day 11): 1.10 mg/dL
Participants with creatinine elevation (>1.5× increase from baseline, RIFLE risk class) ([1]; 200 mg q6h × 7 days, reversible): Two of six and 2 of 6
Peak serum creatinine level ([1]; 200 mg q6h × 7 days, the other participant, day 9): 1.64 mg/dL
Serum creatinine level ([1]; one participant, day 9): 1.74 mg/dL
Serum creatinine level ([1]; one participant, day 11): 1.72 mg/dL
Serum creatinine level ([1]; one participant, day 13): 2.07 mg/dL
Serum creatinine level ([1]; same participant, unscheduled visit after day 13): 1.39 mg/dL
clearance [2, 4]: 63.8 mL/min
Vd [2, 4]: 14.1 ± 1.54 L
clearance [2, 5]: 72.7 mL/min
Vd [2, 5]: 20.7 ± 7.61 L
clearance [2, 6]: 69.5 mL/min
Vd [2, 6]: 19.2 ± 3.34 L
clearance [2, 7]: 62.7 mL/min
Vd [2, 7]: 21.8 ± 3.17 L
clearance [2, 8]: 68.5 mL/min
Vd [2, 8]: 21.3 ± 3.27 L
clearance [2, 9]: 72.3 mL/min
Vd [2, 9]: 25.8 ± 2.73 L
clearance [2, 10]: 65.5 mL/min
Vd [2, 10]: 24.6 ± 2.47 L
half-life [2, 4]: 155 ± 27.6 min
AUC(0-inf) [2, 4]: 2640 ± 330 ng·h/mL
Cmax [2, 4]: 770 ± 120 ng/mL
AUC(0-t) [2, 4]: 2080 ± 190 ng·h/mL
Tmax ([2]; single 1-h IV infusion 10 mg, n = 6, median (range)): 1.12 h
half-life [2, 5]: 193 ± 46.2 min
AUC(0-inf) [2, 5]: 5940 ± 1180 ng·h/mL
Cmax [2, 5]: 1500 ± 380 ng/mL
AUC(0-t) [2, 5]: 4390 ± 1130 ng·h/mL
Tmax ([2]; single 1-h IV infusion 25 mg, n = 5, median (range)): 1.1 h
half-life [2, 6]: 192 ± 25.8 min
AUC(0-inf) [2, 6]: 12200 ± 1790 ng·h/mL
Cmax [2, 6]: 3230 ± 460 ng/mL
AUC(0-t) [2, 6]: 9160 ± 1170 ng·h/mL
Tmax ([2]; single 1-h IV infusion 50 mg, n = 6, median (range)): 1.07 h
half-life [2, 7]: 244 ± 36.6 min
AUC(0-inf) [2, 7]: 27300 ± 4580 ng·h/mL
Cmax [2, 7]: 6710 ± 970 ng/mL
AUC(0-t) [2, 7]: 19200 ± 2740 ng·h/mL
Tmax ([2]; single 1-h IV infusion 100 mg, n = 6, median (range)): 1.13 h
half-life [2, 8]: 230 ± 73.8 min
AUC(0-inf) [2, 8]: 51400 ± 13900 ng·h/mL
Cmax [2, 8]: 13200 ± 2190 ng/mL
AUC(0-t) [2, 8]: 36700 ± 6290 ng·h/mL
Tmax ([2]; single 1-h IV infusion 200 mg, n = 6, median (range)): 1.18 h
half-life [2, 9]: 247 ± 13.8 min
AUC(0-inf) [2, 9]: 69800 ± 7750 ng·h/mL
Cmax [2, 9]: 17300 ± 3050 ng/mL
AUC(0-t) [2, 9]: 48900 ± 6180 ng·h/mL
Tmax ([2]; single 1-h IV infusion 300 mg, n = 6, median (range)): 1.16 h
half-life [2, 10]: 262 ± 30.6 min
AUC(0-inf) [2, 10]: 103000 ± 11600 ng·h/mL
Cmax [2, 10]: 24300 ± 4710 ng/mL
AUC(0-t) [2, 10]: 71400 ± 7200 ng·h/mL
Tmax ([2]; single 1-h IV infusion 400 mg, n = 6, median (range)): 1.19 h
Mean total clearance ([2]; single doses 10–400 mg, appeared dose independent): approximately 4 L/h
fe0–48h [3, 11]: 0.95 ± 0.50^b %
CLR [3, 11]: 0.036 ± 0.018^b L/h
fe0–48h [3, 5]: 5.73 ± 3.67%
CLR [3, 5]: 0.22 ± 0.12 L/h
fe0–48h [3, 6]: 21.5 ± 9.19%
CLR [3, 6]: 0.86 ± 0.33 L/h
fe0–48h [3, 7]: 40.2 ± 5.40%
CLR [3, 7]: 1.51 ± 0.31 L/h
fe0–48h [3, 8]: 47.6 ± 15.6%
CLR [3, 8]: 1.92 ± 0.80 L/h
fe0–48h [3, 9]: 57.5 ± 16.2%
CLR [3, 9]: 2.44 ± 0.50 L/h
fe0–48h [3, 10]: 68.4 ± 11.4%
CLR [3, 10]: 2.68 ± 0.42 L/h
